In patent publication US8063075B2, “Pyrrolidine ether derivatives as NK3 receptor antagonists” (Hoffmann-La Roche Inc., priority 2008, dated 2011):

Molecular target: T1, recombinant human NK3 receptor (Homo sapiens, UniProt P29371)
T1 construct: expressed in transfected cells; host or cells: HEK293 cells (transient expression), membranes
T1 sequence (P29371 1-465): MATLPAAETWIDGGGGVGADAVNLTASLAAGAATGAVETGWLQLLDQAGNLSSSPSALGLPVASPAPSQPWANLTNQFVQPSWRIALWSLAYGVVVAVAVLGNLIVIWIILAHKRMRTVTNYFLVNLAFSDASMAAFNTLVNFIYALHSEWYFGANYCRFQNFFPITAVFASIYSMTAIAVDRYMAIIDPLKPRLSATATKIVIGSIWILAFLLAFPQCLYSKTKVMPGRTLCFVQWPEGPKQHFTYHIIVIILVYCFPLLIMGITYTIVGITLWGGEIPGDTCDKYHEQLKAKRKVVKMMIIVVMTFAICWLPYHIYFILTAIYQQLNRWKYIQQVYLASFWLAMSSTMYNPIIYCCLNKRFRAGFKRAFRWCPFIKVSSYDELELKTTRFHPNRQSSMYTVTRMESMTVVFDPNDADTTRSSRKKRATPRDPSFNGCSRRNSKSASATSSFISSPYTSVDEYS
Assay: [3H]SR142801 competition binding assay
Conditions: membranes from HEK293 cells transiently expressing hNK3; [3H]SR142801 at its KD; 75 min RT; read-out: Data [μM] (affinity constant Ki, hNK3 receptor binding)
Description: [^3H]SR142801 Competition Binding Assay
hNK3 receptor binding experiment were performed using [^3H]SR142801 (Catalog No. TRK1035, specific activity: 74.0 Ci/mmol, Amersham, GE Healthcare UK limited, Buckinghamshire, UK) and membrane isolated from HEK293 cells transiently expressing recombinant human NK3 receptor. After thawing, the membrane homogenates were centrifuged at 48,000×g for 10 min at 4° C., the pellets were resuspended in the 50 mM Tris-HCl, 4 mM MnCl2, 1 μM phosphoramidon, 0.1% BSA binding buffer at pH 7.4 to a final assay concentration of 5 μg protein/well. […] At the end of the incubation, membranes were filtered onto unitfilter (96-well white microplate with bonded GF/C filter preincubated 1 h in 0.3% PEI+0.3% BSA, Packard BioScience, Meriden, Conn.) with a Filtermate 196 harvester (Packard BioScience) and washed 4 times with ice-cold 50 mM Tris-HCl, pH 7.4 buffer. Nonspecific binding was measured in the presence of 10 μM SB222200 for both radioligands. The radioactivity on the filter was counted (5 min) on a Packard Top-count microplate scintillation counter with quenching correction after addition of 45 μl of microscint 40 (Can berra Packard S. A., Zürich, Switzerland) and shaking for 1 h. Inhibition curves were fitted according to the Hill equation: y=100/(1+(x/IC50)^nH), where nH=slope factor using Excel-fit 4 software (Microsoft). IC50 values were derived from the inhibition curve and the affinity constant (Ki) values were calculated using the Cheng-Prussoff equation Ki=IC50/(1+[L]/KD) where [L] is the concentration of radioligand and KD is its dissociation constant at the receptor, derived from the saturation isotherm. All experiments were performed in duplicate and the mean±standard error (SEM) of the individual Ki values was calculated.

Row | Structure (SMILES) | Ki [µM]
1 | C[C@H](Oc1ccc(Cl)cn1)[C@H]1CN(C(=O)C2CCN(C(=O)C3(C)CC3)CC2)C[C@@H]1c1ccc(F)cc1F (racemic) [Example 48, [(3RS,4SR)-3-[(SR)-1-(5-Chloro-pyridin-2-yloxy)-ethyl]-4-(2,4-difluoro-phenyl)-pyrrolidin-1-yl]-[1-(1-methyl-cyclopropanecarbonyl)-piperidin-4-yl]-methanone] | 0.0074
2 | C[C@H](Oc1ccc(C#N)cn1)[C@H]1CN(C(=O)[C@H]2CC[C@H](N(C)C(=O)OC(C)(C)C)CC2)C[C@@H]1c1ccc(Cl)c(Cl)c1 (racemic) [Example 42, {4-[(3RS,4SR)-3-[(SR)-1-(5-Cyano-pyridin-2-yloxy)-ethyl]-4-(3,4-dichloro-phenyl)-pyrrolidine-1-carbonyl]-cyclohexyl}-methyl-carbamic acid tert-butyl ester] | 0.0028
3 | COCC(=O)N1CCC(C(=O)N2C[C@H]([C@H](C)Oc3ccc(C#N)cn3)[C@@H](c3ccc(Cl)c(Cl)c3)C2)CC1 (racemic) [Example 24, 6-((SR)-1-{(3RS,4SR)-4-(3,4-Dichloro-phenyl)-1-[1-(2-methoxy-acetyl)-piperidine-4-carbonyl]-pyrrolidin-3-yl}-ethoxy)-nicotinonitrile] | 0.0036
4 | C[C@H](Oc1ccc(C#N)cn1)[C@H]1CN(C(=O)C2CCN(C(=O)C3CC(=O)C3)CC2)C[C@@H]1c1ccc(Cl)c(Cl)c1 (racemic) [Example 21, 6-((SR)-1-{(3RS,4SR)-4-(3,4-Dichloro-phenyl)-1-[1-(3-oxo-cyclobutanecarbonyl)-piperidine-4-carbonyl]-pyrrolidin-3-yl}-ethoxy)-nicotinonitrile] | 0.0021
5 | C#C[C@H]1CC[C@H](C(=O)N2C[C@H]([C@H](C)Oc3ccc(Cl)cn3)[C@@H](c3ccc(Cl)c(Cl)c3)C2)CC1 (racemic) [Example 10, [(3RS,4SR)-3-[(SR)-1-(5-Chloro-pyridin-2-yloxy)-ethyl]-4-(3,4-dichloro-phenyl)-pyrrolidin-1-yl]-(4-ethynyl-cyclohexyl)-methanone] | 0.009
6 | CC(C)CN1CCC(C(=O)N2C[C@H]([C@H](C)Oc3ccc(Cl)cn3)[C@@H](c3ccc(Cl)c(Cl)c3)C2)CC1 (racemic) [Example 11, [(3RS,4SR)-3-[(SR)-1-(5-Chloro-pyridin-2-yloxy)-ethyl]-4-(3,4-dichloro-phenyl)-pyrrolidin-1-yl]-(1-isobutyl-piperidin-4-yl)-methanone] | 0.0061
7 | C[C@H](Oc1ccc(C#N)cn1)[C@H]1CN(C(=O)C2CCN(C(=O)C3CC3)CC2)C[C@@H]1c1ccc(Cl)c(Cl)c1 (racemic) [Example 14, 6-{(SR)-1-[(3RS,4SR)-1-(1-Cyclopropanecarbonyl-piperidine-4-carbonyl)-4-(3,4-dichloro-phenyl)-pyrrolidin-3-yl]-ethoxy}-nicotinonitrile] | 0.0049
8 | C[C@H](Oc1ccc(C#N)cn1)[C@H]1CN(C(=O)C2CCN(C(=O)OC(C)(C)C)CC2)C[C@@H]1c1ccc(Cl)c(Cl)c1 (racemic) [Example 13, 4-[(3RS,4SR)-3-[(SR)-1-(5-Cyano-pyridin-2-yloxy)-ethyl]-4-(3,4-dichloro-phenyl)-pyrrolidine-1-carbonyl]-piperidine-1-carboxylic acid tert-butyl ester] | 0.0044

Further compounds by falling Ki, results first:

Row | Ki [µM] | Structure (SMILES)
9 | 0.0095 | COC(=O)N[C@H]1CC[C@H](C(=O)N2C[C@H]([C@H](C)Oc3ccc(Cl)cn3)[C@@H](c3ccc(Cl)c(Cl)c3)C2)CC1 (racemic) [Example 5, {4-[(3RS,4SR)-3-[(SR)-1-(5-Chloro-pyridin-2-yloxy)-ethyl]-4-(3,4-dichloro-phenyl)-pyrrolidine-1-carbonyl]-cyclohexyl}-carbamic acid methyl ester]
10 | 0.0076 | CC(=O)N1CCC(C(=O)N2C[C@H]([C@H](C)Oc3ccc(C#N)cn3)[C@@H](c3ccc(Cl)c(Cl)c3)C2)CC1 (racemic) [Example 2, 6-{(SR)-1-[(3RS,4SR)-1-(1-Acetyl-piperidine-4-carbonyl)-4-(3,4-dichloro-phenyl)-pyrrolidin-3-yl]-ethoxy}-nicotinonitrile]
11 | 0.0075 | C[C@H](Oc1ccc(C#N)cn1)[C@H]1CN(C(=O)C2CCN(C(=O)CC#N)CC2)C[C@@H]1c1ccc(Cl)c(Cl)c1 (racemic) [Example 23, 6-{(SR)-1-[(3RS,4SR)-1-[1-(2-Cyano-acetyl)-piperidine-4-carbonyl]-4-(3,4-dichloro-phenyl)-pyrrolidin-3-yl]-ethoxy}-nicotinonitrile]
12 | 0.0058 | COC[C@H]1CC[C@H](C(=O)N2C[C@H]([C@H](C)Oc3ccc(Cl)cn3)[C@@H](c3ccc(Cl)c(Cl)c3)C2)CC1 (racemic) [Example 6, [(3RS,4SR)-3-[(SR)-1-(5-Chloro-pyridin-2-yloxy)-ethyl]-4-(3,4-dichloro-phenyl)-pyrrolidin-1-yl]-(4-methoxymethyl-cyclohexyl)-methanone]
13 | 0.0047 | CC(=O)N1CCC(C(=O)N2C[C@H]([C@H](C)Oc3ccc(Cl)cn3)[C@@H](c3ccc(Cl)c(Cl)c3)C2)CC1 (racemic) [Example 1, 1-{4-[(3RS,4SR)-3-[(SR)-1-(5-Chloro-pyridin-2-yloxy)-ethyl]-4-(3,4-dichloro-phenyl)-pyrrolidine-1-carbonyl]-piperidin-1-yl}-ethanone]
14 | 0.004 | CC(=O)N(C)[C@H]1CC[C@H](C(=O)N2C[C@H]([C@H](C)Oc3ccc(C#N)cn3)[C@@H](c3ccc(Cl)c(Cl)c3)C2)CC1 (racemic) [Example 45, N-{4-[(3RS,4SR)-3-[(SR)-1-(5-Cyano-pyridin-2-yloxy)-ethyl]-4-(3,4-dichloro-phenyl)-pyrrolidine-1-carbonyl]-cyclohexyl}-N-methyl-acetamide]
15 | 0.0036 | CCC(=O)N1CCC(C(=O)N2C[C@H]([C@H](C)Oc3ccc(C#N)cn3)[C@@H](c3ccc(Cl)c(Cl)c3)C2)CC1 (racemic) [Example 22, 6-{(SR)-1-[(3RS,4SR)-4-(3,4-Dichloro-phenyl)-1-(1-propionyl-piperidine-4-carbonyl)-pyrrolidin-3-yl]-ethoxy}-nicotinonitrile]
16 | 0.0026 | C[C@H](Oc1ccc(C#N)cn1)[C@H]1CN(C(=O)C2CCN(C(=O)C3CCC3)CC2)C[C@@H]1c1ccc(Cl)c(Cl)c1 (racemic) [Example 20, 6-{(SR)-1-[(3RS,4SR)-1-(1-Cyclobutanecarbonyl-piperidine-4-carbonyl)-4-(3,4-dichloro-phenyl)-pyrrolidin-3-yl]-ethoxy}-nicotinonitrile]
17 | 0.0019 | C[C@H](Oc1ccc(C#N)cn1)[C@H]1CN(C(=O)C2CCN(C(=O)C3(C)CC3)CC2)C[C@@H]1c1ccc(Cl)c(Cl)c1 (racemic) [Example 47, 6-((SR)-1-{(3RS,4SR)-4-(3,4-Dichloro-phenyl)-1-[1-(1-methyl-cyclopropanecarbonyl)-piperidine-4-carbonyl]-pyrrolidin-3-yl}-ethoxy)-nicotinonitrile]
18 | 0.0018 | CC(=O)N1CCC(C(=O)N2C[C@H]([C@H](C)Oc3ccc(C(F)(F)F)cn3)[C@@H](c3ccc(Cl)c(Cl)c3)C2)CC1 (racemic) [Example 46, 1-(4-{(3SR,4RS)-3-(3,4-Dichloro-phenyl)-4-[(SR)-1-(5-trifluoromethyl-pyridin-2-yloxy)-ethyl]-pyrrolidine-1-carbonyl}-piperidin-1-yl)-ethanone]
19 | 0.001 | C[C@H](Oc1ccc(Cl)cn1)[C@H]1CN(C(=O)C2CCN(C(=O)C3(C)CC3)CC2)C[C@@H]1c1ccc(Cl)cc1 [Example 52, {(3S,4R)-3-(4-Chloro-phenyl)-4-[(S)-1-(5-chloro-pyridin-2-yloxy)-ethyl]-pyrrolidin-1-yl}-[1-(1-methyl-cyclopropanecarbonyl)-piperidin-4-yl]-methanone]
20 | 0.0008 | C[C@H](Oc1ccc(Cl)cn1)[C@H]1CN(C(=O)C2CCN(C(=O)C3(C)CC3)CC2)C[C@@H]1c1ccc(Cl)c(F)c1 [Example 53, {(3S,4R)-3-(4-Chloro-3-fluoro-phenyl)-4-[(S)-1-(5-chloro-pyridin-2-yloxy)-ethyl]-pyrrolidin-1-yl}-[1-(1-methyl-cyclopropanecarbonyl)-piperidin-4-yl]-methanone]
